Assays:
C57B6 male mice = assay: Freezing behavior test; format: in vivo; settings: 10 mg/kg
Method: Experimental method: The experimental animals were C57B6 male mice, n=8 in each group. Mice were first injected with different compounds, and after a certain period of time (30 min or 60 min), the mice were in an upright and unnatural state by placing their forelimbs on a high glass hanging rod (about 5 cm from the ground). Then the time for the mice to maintain this state was measured, and the length of time was used to determine the freezing effect of the drug on the mice.

5-HT2A receptor [1] = biological target: T1, 5-HT2A receptor (Homo sapiens (Human), UniProt P28223); assay: Radioligand competition binding, affinity for 5-HT2A receptor ([3H]-ketanserin)
Method: The affinity of the compounds of the present invention for the 5-HT2A receptors was determined by the method of radioligand competition experiment. In the first step, a cell membrane component containing specific 5-HT2A receptor was prepared. A 10 cm dish was used for transfection with 10 ng of the 5-HT2A receptor and 40 μL of PEI. […] A vacuum pump was used to suck off the culture medium, 3 mL of lysis buffer was added to each well, and the cells were placed in a 4° C. freezer for 10 minutes. After the cells were detached, the cells were transferred to a 15 mL centrifuge tube and centrifuged at 1500 rpm for 5 minutes at 4° C., and the supernatant was discarded. The cell pellet was transferred to a tissue homogenizer, and 3 mL of lysis buffer was added and fully ground until the cells were broken. Then, cell suspension was equally divided into several EP tubes, centrifuged at 4° C. and 12000 rpm for 5 min, and the supernatant was discarded. The precipitate was the cell membrane component containing the 5-HT2A receptor. […] First, a standard binding buffer was added to the cell membrane component containing the 5-HT2A receptor, and the cell membrane was disrupted and resuspended with an electric tissue homogenizer. 30 μL of membrane protein suspension was added to each well of a 96-well plate. Then, 30 μL of different drugs were added to the 96-well plate from left to right to ensure that the final drug concentrations were 10^−5 M, 10^−6 M, 10^−7 M, 10^−8 M, 10^−9 M and 0 M, with two replicates per treatment. Next, 30 μL [^3H]-ketanserin was added to each well of the 96-well plate. The plate was incubated for 2 hours at room temperature in the dark. Detection. The machine reading value reflected the amount of [^3H]-ketanserin bound on the membrane, and after further data processing, the affinity Ki value of different compounds for 5-HT2A receptor was obtained.

5-HT2A receptor [2] = biological target: T1, 5-HT2A receptor; settings: Blair, Drugs, 2020; cited from earlier work
dopamine D2 receptors [3] = biological target: T2, dopamine D2 receptors (Homo sapiens (Human), UniProt P14416); assay: G protein Gαi1-γ9 dissociation BRET, dopamine D2 receptor functional activity; format: cell-based
Method: To examine downstream G protein signaling mediated by dopamine D2 receptors, 6 cm dish was used for transfection with 1μg of dopamine D2 receptors, 1μg of Gαi1 fused to seaweed luciferase (Gαi1-Rluc), 1 μg of Gβ3, 1 μg of Gγ9 fused to green fluorescent protein (Gγ9-GFP) and 16 μL of transfection reagent PEI. […] On the third day, the drugs were added for test.
(§1) To examine downstream G-protein signaling pathway mediated by dopamine D2 receptors, on the first day, 6 cm dish was used for transfection with 1μg of dopamine D2 receptors, 1μg of Gαi1 containing C-terminal seaweed luciferase (GGαi1-Rluc), 1 μg of […], 1 μg of Gγ9 containing C-terminal green fluorescent protein (Gγ9-GFP) and 16 μL of PEI. At the same time, in order to examine the downstream f3-arrestin2 signaling pathway mediated by dopamine D2 receptors, on the first day, 6 cm dish was used for transfection with 500 μg of dopamine D2 receptors containing C-terminal seaweed luciferase (D2-Rluc), 500 μg of G protein-coupled receptor kinase 2 (GRK2), 2500 μg of […] containing N-terminal green fluorescent protein (GFP2-ARRB2) and 14 μL of PEI. The next day, the overgrown cells were digested and plated a 96-well plate at the amount of cells contained in a 6 cm culture dish with overgrown cells, and 100 μL of culture medium was added to each well. On the third day, the drugs were added for test. The 96-well plate was taken out from the cell culture room to remove the culture medium, 40 μL of the substrate coelenterazine 400a (final concentration of 5 μM) was added to each well, and then 20 μL of different drugs were added in turn from left to right to ensure that the final concentration of the drugs decreased gradually from bottom to top, and each treatment was repeated twice. Finally, the prepared samples were loaded on machine for test. The machine reading value reflected the intracellular β-arrestin2 on the membrane and the dissociation of G protein trimer. The former indicated the degree of activation of the β-arrestin2 signaling pathway downstream of the dopamine D2 receptors, and the latter indicated the degree of activation of the G protein signaling pathway downstream of the dopamine D2 receptors.

dopamine D2 receptors [4] = biological target: T2, dopamine D2 receptors; assay: Radioligand competition binding, affinity for dopamine D2 receptors ([3H]-Methylspiperone)
Method: A 10 cm diameter dish was used for transfection with 10 ng of the dopamine D2 receptors and 40 μL of PEI. After 48 hours, the 10 cm dish was taken out from the cell culture room and the cultured cells had expressed the dopamine D2 receptors. A vacuum pump was used to suck off the culture medium, 3 mL of lysis buffer (50 mM Tris hydrochloric acid buffer, pH 7.4) was added to each well, and the cells were placed in a 4° C. freezer for 10 minutes. After the cells were detached, the cells were transferred to a 15 mL centrifuge tube and centrifuged at 1500 rpm for 5 minutes at 4° C., and the supernatant was discarded. The cell pellet was transferred to a tissue homogenizer, and 3 mL of lysis buffer was added and fully ground until the cells were broken. Then, cell suspension was equally divided into several EP tubes, centrifuged at 4° C. and 12000 rpm for 5 min, and the supernatant was discarded. The precipitate was the cell membrane component containing the dopamine D2 receptors and stored at −80° C.
First, a standard binding buffer (50 mM HEPES, 50 mM NaCl, 5 mM MgCl2, 0.5 mM EDTA, pH 7.4) was added to the cell membrane component containing the dopamine D2 receptors, and the cell membrane was disrupted and resuspended with an electric tissue homogenizer. 30 μL of membrane protein suspension was added to each well of a 96-well plate. Then, 30 μL of different drugs were added to the 96-well plate from left to right to ensure that the final drug concentrations were 10^−5 M, 10^−6 M, 10^−7 M, 10^−8 M, 10^−9 M and 0 M, with two replicates per treatment. Next, 30 μL [^3H]-N-Methylspiperone was added to each well of the 96-well plate, and the plate was incubated for 2 hours at room temperature in the dark. The unbound isotopes were removed by Whatman GF/C filter membrane and vacuum pump, and the isotopes bound to the receptors were detected by MicroBeta isotope liquid scintillation counter.
The affinity of the compounds of the present invention for the dopamine D2 receptors was determined by the method of radioligand competition experiment. In the first step, a cell membrane component containing specific dopamine D2 receptors was prepared. A10 cm dish was used for transfection with 10 ng of the dopamine D2 receptors and 40 μL of PEI. After 48 hours, the 10 cm dish was taken out from the cell culture room and the cultured cells had expressed the dopamine D2 receptors. A vacuum pump was used to suck off the culture medium, 3 mL of lysis buffer was added to each well, and the cells were placed in a 4° C. freezer for 10 minutes. After the cells were detached, the cells were transferred to a 15 mL centrifuge tube and centrifuged at 1500 rpm for 5 minutes at 4° C., and the supernatant was discarded. The cell pellet was transferred to a tissue homogenizer, and 3 mL of lysis buffer was added and fully ground until the cells were broken. Then, cell suspension was equally divided into several EP tubes, centrifuged at 4° C. and 12000 rpm for 5 min, and the supernatant was discarded. The precipitate was the cell membrane component containing the dopamine D2 receptors. […] First, a standard binding buffer was added to the cell membrane component containing the dopamine D2 receptors, and the cell membrane was disrupted and resuspended with an electric tissue homogenizer. 30 μL of membrane protein suspension was added to each well of a 96-well plate. Then, 30 μL of different drugs were added to the 96-well plate from left to right to ensure that the final drug concentrations were 10^−5 M, 10^−6 M, 10^−7 M, 10^−8 M, 10^−9 M and 0 M, with two replicates per treatment. Next, 30 μL [^3H]-Methylspiperone was added to each well of the 96-well plate. The plate was incubated for 2 hours at room temperature in the dark. Detection. The machine reading value reflected the amount of [^3H]-Methylspiperone bound on the membrane, and after further data processing, the affinity Ki value of different compounds for dopamine D2 receptors was obtained.

dopamine D2 receptors [5] = biological target: T2, dopamine D2 receptors; assay: β-arrestin2 recruitment BRET, dopamine D2 receptor functional activity; format: cell-based
Method: To examine the downstream f3-arrestin2 signaling pathway mediated by dopamine D2 receptors, 6 cm dish was used for transfection with 500 […] of dopamine D2 receptors fused to seaweed luciferase (D2-Rluc), 500 μg of G protein-coupled receptor kinase 2 (GRK2), 2500 μg of β-arrestin2 fused to green fluorescent protein (GFP2-ARRB2) and 14 μL of transfection reagent PEI. The next day, the overgrown cells were digested and plated a 96-well plate at the amount of cells contained in a 6 cm culture dish with overgrown cells, and 100 μL of culture medium was added to each well. On the third day, the drugs were added for test.
as §1

T2 sequence (P14416 whole entry, the tested form may be a part): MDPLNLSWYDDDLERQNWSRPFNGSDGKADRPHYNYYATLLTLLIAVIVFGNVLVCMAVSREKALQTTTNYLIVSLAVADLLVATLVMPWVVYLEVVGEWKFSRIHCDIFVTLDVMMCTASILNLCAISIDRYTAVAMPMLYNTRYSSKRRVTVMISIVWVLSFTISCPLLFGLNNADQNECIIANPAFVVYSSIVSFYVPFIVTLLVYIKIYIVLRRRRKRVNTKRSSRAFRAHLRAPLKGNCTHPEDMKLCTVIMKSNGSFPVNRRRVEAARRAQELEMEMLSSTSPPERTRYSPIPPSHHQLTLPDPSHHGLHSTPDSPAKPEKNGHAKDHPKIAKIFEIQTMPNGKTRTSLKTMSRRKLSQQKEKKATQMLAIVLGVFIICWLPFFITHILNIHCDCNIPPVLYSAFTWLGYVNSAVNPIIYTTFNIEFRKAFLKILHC
T1 sequence (P28223 whole entry): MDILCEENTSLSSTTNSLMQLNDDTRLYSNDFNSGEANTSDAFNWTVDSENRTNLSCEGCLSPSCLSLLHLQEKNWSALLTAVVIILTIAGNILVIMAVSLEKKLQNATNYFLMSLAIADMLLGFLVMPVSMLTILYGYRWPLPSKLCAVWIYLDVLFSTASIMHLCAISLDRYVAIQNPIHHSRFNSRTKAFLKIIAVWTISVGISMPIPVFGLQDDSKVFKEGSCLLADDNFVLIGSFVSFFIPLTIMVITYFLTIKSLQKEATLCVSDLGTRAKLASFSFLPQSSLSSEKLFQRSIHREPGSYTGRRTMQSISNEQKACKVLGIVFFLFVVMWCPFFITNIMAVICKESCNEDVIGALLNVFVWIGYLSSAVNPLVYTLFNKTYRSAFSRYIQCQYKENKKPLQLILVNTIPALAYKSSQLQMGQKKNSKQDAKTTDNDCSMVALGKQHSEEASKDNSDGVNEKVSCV

Q: For O=C(CCCN1CCC(O)(c2ccc(Cl)cc2)CC1)c1ccc(F)cc1 [Haloperidol, reference compound], which Freezing time (C57B6 male mice; 30 minutes after administration) is on record?
A: Its Freezing time is 61.05 ± 3.239 s.

Q: What about the Freezing time (C57B6 male mice; 60 minutes after administration) of the same molecule?
A: The Freezing time was 53.19 ± 2.443 s.

Q: Which “affinity for 5-HT2A receptor (in words)” value (5-HT2A receptor [1]) does the source give for O=c1ccc2ccc(OCCCCN3CCN4c5cccc6[nH]cc(c56)CC4C3)cc2[nH]1 (stereo not drawn) [Compound I-2, 7-(4(4,6,6a,7,9,10-hexahydro-8H-pyrazino[1,2-a]pyrrolo[4,3,2-de]quinolin-8-yl)butoxy)quinolin-2(1H)-one] here?
A: The value was “very weak affinity”.

Q: Which “affinity for 5-HT2A receptors relative to that for D2 receptors” value (5-HT2A receptor [2]) does the source give for CN1CCN2c3c(cccc31)[C@@H]1CN(CCCC(=O)c3ccc(F)cc3)CC[C@@H]12 [Lumateperone] here?
A: Its value is “about 60 times”.

Q: Which “affinity for 5-HT2A receptor (in words)” value (5-HT2A receptor [1]) does the source give for CN(C)C(=O)N[C@H]1CC[C@H](CCN2CCN3c4cccc5[nH]cc(c45)CC3C2)CC1 (stereo partly drawn) [Compound I-10, 3-(4-(2-(4,6,6a,7,9,10-hexahydro-8H-pyrazino[1,2-a]pyrrolo[4,3,2-de]quinolin-8-yl)ethyl)trans-cyclohexyl)-1,1-dimethylurea] here?
A: The value was “very weak affinity”.

Q: What about the Ki (5-HT2A receptor [1]; [3H]-ketanserin, HEK-293T membranes) of the same molecule?
A: Its Ki is 2370 nM.

Q: And the EC50 (dopamine D2 receptors [3]; HEK-293T, I-1 to 19 n=3, I-20 to 27 single determination, read-out: Gai1 BRET EC50)?
A: Its EC50 is 3.89 nM.

Q: And the Emax (dopamine D2 receptors [3]; read-out: Gai1 BRET Emax % ± SEM)?
A: Its Emax is 80%.

Q: And the “Affinity pKi ± SEM” value (dopamine D2 receptors [4])?
A: Its value is “(7.30 ± 0.08)”.

Q: What about the Ki (dopamine D2 receptors [4]) of the same molecule?
A: Its Ki is 50.6 nM.

Q: What about the EC50 (dopamine D2 receptors [5]; HEK-293T, I-1 to 19 n=3, I-20 to 27 single determination, read-out: β-arrestin2 BRET EC50) of the same molecule?
A: Its EC50 is 6.61 nM.

Q: And the Emax (dopamine D2 receptors [5]; read-out: β-arrestin2 BRET Emax % ± SEM)?
A: Its Emax is 84%.
